BindingDB's records for doi:10.1021/jm950759z (Cooperation Pharmaceutique Fran?aise, 1997)

Assay: Inhibition of [3H]spiperone binding to Dopamine receptor D3 in bovine cortex

SMILES: O=C1CC2(CCCC2)CC(=O)N1CCCCN1CCN(c2ncccn2)CC1 [BUSPAR]
- Ki: 660 nM
